Laboratory results: patent publication US6057340A, “Oxazole derivatives as serotonin-1A receptor agonists” (American Home Products Corporation, priority 1999, dated 2000)

Biological target: T1, human 5HT1A receptor (Homo sapiens, UniProt P08908)
T1 construct: expressed in transfected cells
T1 sequence (P08908 1-422): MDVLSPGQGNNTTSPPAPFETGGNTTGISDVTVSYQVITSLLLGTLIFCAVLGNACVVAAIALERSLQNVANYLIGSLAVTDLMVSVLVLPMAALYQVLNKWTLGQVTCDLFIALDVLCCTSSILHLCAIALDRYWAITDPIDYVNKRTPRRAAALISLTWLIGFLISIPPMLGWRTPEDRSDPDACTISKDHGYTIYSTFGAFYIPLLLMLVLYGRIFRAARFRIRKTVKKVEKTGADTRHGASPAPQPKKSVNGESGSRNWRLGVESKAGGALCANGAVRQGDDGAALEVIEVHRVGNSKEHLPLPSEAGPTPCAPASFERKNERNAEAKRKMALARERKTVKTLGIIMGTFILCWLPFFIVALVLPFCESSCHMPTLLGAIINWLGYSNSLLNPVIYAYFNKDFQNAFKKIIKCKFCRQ
Test: displacement of [^3 H] 8-OH-DPAT binding in CHO cells stably transfected with human 5HT1A receptor
Conditions: final ligand concentration 1.5 nM, 30 minute incubation at room temperature
Procedure: The compounds of this invention are 5-HT1A agonists. Affinity for the serotonin 5-HT1A receptor was established in a standard pharmacological test procedure which measures the compound's ability to displace [^3 H] 8-OH-DPAT binding in CHO cells stably transfected with human 5HT1A receptor. Stably transfected CHO cells are grown in DMEM containing 10% heat inactivated FBS and non-essential amino acids. Cells are scraped off the plate, transferred to centrifuge tubes, and washed twice by centrifugation (2000 rpm for 10 min., 4° C.) in buffer (50 mM Tris pH 7.5). The resulting pellets are aliquoted and placed at -80° C. On the day of assay, the cells are thawed on ice and resuspended in buffer. The binding assay is performed in a 96 well microtiter plate in a total volume of 250 μL. Non-specific binding is determined in the presence of […], final ligand concentration is 1.5 nM. Following a 30 minute incubation at room temperature, the reaction is terminated by the addition of ice cold buffer and rapid filtration through a GF/B filter presoaked for 30 minutes in 0.5% PEI. Compounds are initially tested in a single point assay to determine percent inhibition at […], and Ki values are determined for the active compounds.

Work on `COc1ccccc1C1CCN(Cc2oc(C3CCCCC3)nc2Cc2ccccc2)CC1` [Example 9, 1-(4-Benzyl-2-cyclohexyl-oxazol-5-ylmethyl)-4-(2-methoxy-phenyl)-piperidine] yielded a Ki of 4.4 nM.
